Experimental data from US11046649B2, “Compounds useful as inhibitors of indoleamine 2,3-dioxygenase and/or tryptophan dioxygenase” (Board of Regents, The University of Texas System, priority 2018, dated 2021).

These molecules were tested against T1, IDO1 (Homo sapiens, UniProt P14902) (assay: IDO1 cell-based assay). Settings: HeLa cells, 10 ng/mL IFNgamma, 24 hours with test compound; N-Formyl Kynurenine and L-tryptophan quantified by RFMS.
T1 construct: endogenous in cells; host or cells: HeLa cells (ATCC), IDO1 induced with 10 ng/mL IFNgamma
T1 sequence (P14902 whole entry): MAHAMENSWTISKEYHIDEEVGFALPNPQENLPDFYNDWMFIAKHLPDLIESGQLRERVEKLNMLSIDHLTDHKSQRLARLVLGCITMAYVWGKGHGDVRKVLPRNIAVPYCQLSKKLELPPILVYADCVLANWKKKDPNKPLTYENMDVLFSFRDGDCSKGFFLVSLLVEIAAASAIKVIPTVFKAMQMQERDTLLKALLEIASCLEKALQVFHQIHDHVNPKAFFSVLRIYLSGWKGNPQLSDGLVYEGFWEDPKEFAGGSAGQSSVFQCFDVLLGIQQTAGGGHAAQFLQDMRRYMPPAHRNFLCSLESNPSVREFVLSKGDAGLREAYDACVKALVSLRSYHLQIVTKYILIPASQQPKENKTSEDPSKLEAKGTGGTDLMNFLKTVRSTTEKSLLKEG
“2-((1R,3s,5S,6r)-3-((6- fluoroquinolin-4-yl)oxy)- bicyclo[3.1.0]hexan-6-yl)- N-(1-(trifluoromethyl)-1H- pyrazol-3-yl)propanamide [Example 102]” gave an IC50 of 3.7 nM.
With “2-((1R,3s,5S,6r)-3-((6- fluoroquinolin-4-yl)oxy)- bicyclo[3.1.0]hexan-6-yl)- N-(5-(4-methyl-4H-1,2,4- triazol-3-yl)pyridin-2-yl)- propanamide [Example 97]” the IC50 was 818 nM.
For `CC(C(=O)Nc1ccc(F)cn1)[C@H]1[C@@H]2C[C@@H](n3cnc4cc(F)c(F)cc43)C[C@@H]21` (stereo partly drawn) [Example 4, 2-((1R,3s,5S,6r)-3-(5,6-difluoro-1H-benzo[d]imidazol-1-yl)bicyclo[3.1.0]hexan-6-yl)-N-(5-fluoropyridin-2-yl)propanamide], the IC50 was 5.1 nM.
`COc1ccc(-c2ccc(NC(=O)[C@@H](C)[C@H]3[C@@H]4C[C@@H](n5cnc6cc(F)c(F)cc65)C[C@@H]43)cc2)cn1` [Example 6, (S)-2-((1R,3R,5S,6r)-3-(5,6-difluoro-1H-benzo[d]imidazol-1-yl)bicyclo[3.1.0]hexan-6-yl)-N-(4-(6-methoxypyridin-3-yl)phenyl)propanamide] was tested, and the IC50 was 329 nM.
`CC(C(=O)NC12CC(CO)(C1)C2)[C@H]1[C@@H]2C[C@@H](Oc3ccnc4ccc(F)cc34)C[C@@H]21` (stereo partly drawn) [Example 7, 2-((1R,3s,5S,6r)-3-((6-fluoroquinolin-4-yl)oxy)bicyclo[3.1.0]hexan-6-yl)-N-(3-(hydroxy-methyl)bicyclo[1.1.1]pentan-1-yl)propanamide] was tested, and the IC50 was 468 nM.
`CC(C(=O)NC12CC(CC#N)(C1)C2)[C@H]1[C@@H]2C[C@@H](Oc3ccnc4ccc(F)cc34)C[C@@H]21` (stereo partly drawn) [Example 8, N-(3-(cyanomethyl)bicyclo[1.1.1]pentan-1-yl)-2-((1R,3s,5S,6r)-3-((6-fluoroquinolin-4-yl)-oxy)bicyclo[3.1.0]hexan-6-yl)propanamide] showed an IC50 of 51.3 nM.
`COCC12CC(NC(=O)C(C)[C@H]3[C@@H]4C[C@@H](Oc5ccnc6ccc(F)cc56)C[C@@H]43)(C1)C2` (stereo partly drawn) [Example 9, 2-((1R,3s,5S,6r)-3-((6-fluoroquinolin-4-yl)oxy)bicyclo[3.1.0]hexan-6-yl)-N-(3-(methoxymethyl)bicyclo[1.1.1]pentan-1-yl)propanamide] was tested, and the IC50 was 55 nM.
In the case of `CC(C(=O)NC12CC(N)(C1)C2)[C@H]1[C@@H]2C[C@@H](Oc3ccnc4ccc(F)cc34)C[C@@H]21` (stereo partly drawn) [Example 11, N-(3-aminobicyclo[1.1.1]pentan-1-yl)-2-((1R,3s,5S,6r)-3-((6-fluoroquinolin-4-yl)oxy)-bicyclo-[3.1.0]hexan-6-yl)propanamide], the IC50 is reported as 1600 nM.
Work on `CCC(c1nc2cc(C(F)(F)F)ccc2[nH]1)[C@H]1[C@@H]2C[C@@H](Oc3ccnc4ccc(F)cc34)C[C@@H]21` (some centres unmarked) [Example 12] yielded an IC50 of 0.85 nM.
`CC(C(=O)NC12CC(C(C)O)(C1)C2)[C@H]1[C@@H]2C[C@@H](n3cnc4cc(F)c(F)cc43)C[C@@H]21` (stereo partly drawn) [Example 13, 2-((1R,3s,5S,6r)-3-(5,6-difluoro-1H-benzo[d]imidazol-1-yl)bicyclo[3.1.0]hexan-6-yl)-N-(3-(1-hydroxyethyl)bicyclo[1.1.1]pentan-1-yl)propanamide] was tested, and the IC50 was 626 nM.
Work on `CC(C(=O)Nc1ccc(Cl)cc1)[C@H]1[C@@H]2C[C@@H](n3cnc4ccc(C#N)cc43)C[C@@H]21` (stereo partly drawn) [Example 16, N-(4-chlorophenyl)-2-((1R,3s,5S,6r)-3-(6-cyano-1H-benzo[d]imidazol-1-yl)-bicyclo[3.1.0]hexan-6-yl)-propanamide] yielded an IC50 of 4.4 nM.
`CC(C(=O)Nc1ccc(C(F)(F)F)cn1)[C@H]1[C@@H]2C[C@@H](n3cnc4cc(F)c(F)cc43)C[C@@H]21` (stereo partly drawn) [Example 18, 2-((1R,3s,5S,6r)-3-(5,6-difluoro-1H-benzo[d]-imidazol-1-yl)bicyclo-[3.1.0]hexan-6-yl)-N-(5-(trifluoromethyl)pyridin-2-yl)propanamide] was tested, and the IC50 was 4.8 nM.
`CC(C(=O)Nc1ccc(Cl)cn1)[C@H]1[C@@H]2C[C@@H](n3cnc4cc(F)c(F)cc43)C[C@@H]21` (stereo partly drawn) [Example 22, N-(5-chloropyridin-2-yl)-2-((1R,3s,5S,6r)-3-(5,6-difluoro-1H-benzo[d]-imidazol-1-yl)bicyclo-[3.1.0]hexan-6-yl)-propanamide] showed an IC50 of 2.5 nM.
Work on `CC(C(=O)NC12CC(C#N)(C1)C2)[C@H]1[C@@H]2C[C@@H](n3cnc4cc(F)c(F)cc43)C[C@@H]21` (stereo partly drawn) [Example 23, N-(3-cyanobicyclo-[1.1.1]pentan-1-yl)-2-((1R,3s,5S,6r)-3-(5,6-difluoro-1H-benzo[d]-imidazol-1-yl)bicyclo-[3.1.0]hexan-6-yl)-propanamide] yielded an IC50 of 1650 nM.
Molecule `CC(C(=O)NC12CC(C(F)(F)F)(C1)C2)[C@H]1[C@@H]2C[C@@H](n3cnc4cc(F)c(F)cc43)C[C@@H]21` (stereo partly drawn) [Example 24, 2-((1R,3s,5S,6r)-3-(5,6-difluoro-1H-benzo[d]-imidazol-1-yl)bicyclo-[3.1.0]hexan-6-yl)-N-(3-(trifluoromethyl)bicyclo [1.1.1]pentan-1-yl)-propanamide] has an IC50 of 117 nM.
In the case of `CC(C(=O)NC1CC(F)C1)[C@H]1[C@@H]2C[C@@H](n3cnc4cc(F)c(F)cc43)C[C@@H]21` (stereo partly drawn) [Example 25, 2-((1R,3s,5S,6r)-3-(5,6-difluoro-1H-benzo[d]-imidazol-1-yl)bicyclo-[3.1.0]hexan-6-yl)-N-(3-fluorocyclobutyl)-propanamide], the IC50 is reported as 3420 nM.
Work on `COc1ccc(NC(=O)C(C)[C@H]2[C@@H]3C[C@@H](n4cnc5cc(F)c(F)cc54)C[C@@H]32)nc1` (stereo partly drawn) [Example 27, 2-((1R,3s,5S,6r)-3-(5,6-difluoro-1H-benzo[d]-imidazol-1-yl)bicyclo-[3.1.0]hexan-6-yl)-N-(5-methoxypyridin-2-yl)-propanamide] yielded an IC50 of 6.63 nM.
`CC(C(=O)NC12CC(F)(C1)C2)[C@H]1[C@@H]2C[C@@H](n3cnc4cc(F)c(F)cc43)C[C@@H]21` (stereo partly drawn) [Example 28, 2-((1R,3s,5S,6r)-3-(5,6-difluoro-1H-benzo[d]-imidazol-1-yl)bicyclo-[3.1.0]hexan-6-yl)-N-(3-fluorobicyclo[1.1.1]pentan-1-yl)propanamide] was tested, and the IC50 was 2520 nM.
Molecule `Cc1ccc(NC(=O)C(C)[C@H]2[C@@H]3C[C@@H](n4cnc5cc(F)c(F)cc54)C[C@@H]32)nc1` (stereo partly drawn) [Example 29, 2-((1R,3s,5S,6r)-3-(5,6-difluoro-1H-benzo[d]-imidazol-1-yl)bicyclo-[3.1.0]hexan-6-yl)-N-(5-methylpyridin-2-yl)-propanamide] has an IC50 of 10.9 nM.
In the case of `CC(C(=O)NC1CC(F)(F)C1)[C@H]1[C@@H]2C[C@@H](n3cnc4cc(F)c(F)cc43)C[C@@H]21` (stereo partly drawn) [Example 30, 2-((1R,3s,5S,6r)-3-(5,6-difluoro-1H-benzo[d]-imidazol-1-yl)bicyclo-[3.1.0]hexan-6-yl)-N-(3,3-difluorocyclobutyl)-propanamide], the IC50 is reported as 1640 nM.
In the case of `CC(C(=O)Nc1cnn(C)c1)[C@H]1[C@@H]2C[C@@H](n3cnc4cc(F)c(F)cc43)C[C@@H]21` (stereo partly drawn) [Example 31, 2-((1R,3s,5S,6r)-3-(5,6-difluoro-1H-benzo[d]-imidazol-1-yl)bicyclo-[3.1.0]hexan-6-yl)-N-(1-methyl-1H-pyrazol-4-yl)-propanamide], the IC50 is reported as 141 nM.
`CC(C(=O)NC1CCC(F)(F)C1)[C@H]1[C@@H]2C[C@@H](n3cnc4cc(F)c(F)cc43)C[C@@H]21` (stereo partly drawn) [Example 32, 2-((1R,3s,5S,6r)-3-(5,6-difluoro-1H-benzo[d]-imidazol-1-yl)bicyclo-[3.1.0]hexan-6-yl)-N-(3,3-difluorocyclopentyl)-propanamide] showed an IC50 of 289 nM.
With `CC(C(=O)Nc1ccn(C)n1)[C@H]1[C@@H]2C[C@@H](n3cnc4cc(F)c(F)cc43)C[C@@H]21` (stereo partly drawn) [Example 34, 2-((1R,3s,5S,6r)-3-(5,6-difluoro-1H-benzo[d]-imidazol-1-yl)bicyclo-[3.1.0]hexan-6-yl)-N-(1-methyl-1H-pyrazol-3-yl)-propanamide] the IC50 was 179 nM.
Molecule `O=C(N[C@H](C1CC1)[C@H]1[C@@H]2C[C@@H](Oc3ccnc4ccc(F)cc34)C[C@@H]21)c1ccc(Cl)cc1` [Example 38, 4-chloro-N-((R)-cyclo-propyl((1R,3s,5S,6r)-3-((6-fluoroquinolin-4-yl)oxy)-bicyclo[3.1.0]hexan-6-yl)-methyl)benzamide] has an IC50 of 1.37 nM.
With `CC(C(=O)NC12CC(c3ccc(F)cc3)(C1)C2)[C@H]1[C@@H]2C[C@@H](n3cnc4cc(F)c(F)cc43)C[C@@H]21` (stereo partly drawn) [Example 39, 2-((1R,3s,5S,6r)-3-(5,6-difluoro-1H-benzo[d]-imidazol-1-yl)bicyclo-[3.1.0]hexan-6-yl)-N-(3-(4-fluorophenyl)bicyclo-[1.1.1]pentan-1-yl)-propanamide] the IC50 was 12.9 nM.
With `CC(C(=O)NC1CCC(F)(F)CC1)[C@H]1[C@@H]2C[C@@H](n3cnc4cc(F)c(F)cc43)C[C@@H]21` (stereo partly drawn) [Example 43, 2-((1R,3s,5S,6r)-3-(5,6-difluoro-1H-benzo[d]-imidazol-1-yl)bicyclo-[3.1.0]hexan-6-yl)-N-(4,4-difluorocyclohexyl)-propanamide] the IC50 was 192 nM.
Work on `CC(C(=O)NCC(F)(F)F)[C@H]1[C@@H]2C[C@@H](n3cnc4cc(F)c(F)cc43)C[C@@H]21` (stereo partly drawn) [Example 44, 2-((1R,3s,5S,6r)-3-(5,6-difluoro-1H-benzo[d]-imidazol-1-yl)bicyclo-[3.1.0]hexan-6-yl)-N-(2,2,2-trifluoroethyl)-propanamide] yielded an IC50 of 6760 nM.
`CC(C(=O)NCCC(F)(F)F)[C@H]1[C@@H]2C[C@@H](n3cnc4cc(F)c(F)cc43)C[C@@H]21` (stereo partly drawn) [Example 45, 2-((1R,3s,5S,6r)-3-(5,6-difluoro-1H-benzo[d]-imidazol-1-yl)bicyclo-[3.1.0]hexan-6-yl)-N-(3,3,3-bifluoropropyl)-propanamide] showed an IC50 of 663 nM.
Molecule `Cc1nc(NC(=O)C(C)[C@H]2[C@@H]3C[C@@H](n4cnc5cc(F)c(F)cc54)C[C@@H]32)ccc1C#N` (stereo partly drawn) [Example 46, (R)-N-(5-cyano-6-methyl-pyridin-2-yl)-2-((1R,3s,5S,6r)-3-(5,6-difluoro-1H-benzo[d]-imidazol-1-yl)bicyclo-[3.1.0]hexan-6-yl)-propanamide] has an IC50 of 41.3 nM.
